Results on 9 molecules are retold here after patent publication US10138255B2, “Piperazine derivatives as HIV protease inhibitors” (Merck Sharp & Dohme Corp., priority 2014, dated 2018).

This experiment relates to HIV-1 (H9IIIB strain). Briefly: Cell-Based HIV Infection Assay Using a Reporter (MT4-GFP cells). The following applies: Human immunodeficiency virus 1, inflection point (IP) of viral growth inhibition; MT4-GFP cells infected with HIV-1 H9IIIB; 50% normal human serum; mean of at least two independent experiments; read-out: Cell Based IP (50% NHS). The method, boiled down: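 Inflection point from a 4-parameter curve of % viral growth inhibition, normalised to DMSO and triple-drug controls, using the 48 h/24 h ratio of GFP-positive cells (R0). MT4-GFP cells pre-infected 24 h with HIV-1 H9IIIB at low MOI; compounds tested in 50% normal human serum, 0.4% DMSO; mean of ≥2 experiments.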
`Cn1nc(C(F)(F)F)cc1[C@H](c1ccc(Cl)c(F)c1)[C@H](N)C(=O)Nc1cncc(F)c1CC[C@H]1CN[C@@H]2CCCS(=O)(=O)N1C2` [Example 268, (βR)-4-chloro-N-(4-{2-[(6R,9S)-2,2-dioxido-2-thia-1,7-diazabicyclo[4.3.1]dec-9-yl]ethyl}-5-fluoropyridin-3-yl)-3-fluoro-β-[1-methyl-3-(trifluoromethyl)-1H-pyrazol-5-yl]-L-phenylalaninamide]: the EC50 amounted to 18 nM.
To `N[C@H](C(=O)Nc1cncc(F)c1CC[C@H]1CN[C@@H]2CCCS(=O)(=O)N1C2)[C@@H](c1ccc(Cl)cc1)c1csc(C(F)(F)F)n1` [Example 269, (βR)-4-chloro-N-(4-{2-[(6R,9S)-2,2-dioxido-2-thia-1,7-diazabicyclo[4.3.1]dec-9-yl]ethyl}-5-fluoropyridin-3-yl)-β-[2-(trifluoromethyl)-1,3-thiazol-4-yl]-L-phenylalaninamide] belongs 5 nM; to `COC(=O)N[C@H](C(=O)Nc1cccc(F)c1CC[C@H]1CN[C@@H]2CCCS(=O)(=O)N1C2)[C@@H](c1ccc(Cl)cc1)C1CCC(C)(C)OC1` (stereo partly drawn) [Example 271, methyl {(1S,2R)-2-(4-chlorophenyl)-2-(6,6-dimethyltetrahydro-2H-pyran-3-yl)-1-[(2-{2-[(6R,9S)-2,2-dioxido-2-thia-1,7-diazabicyclo[4.3.1]dec-9-yl]ethyl}-3-fluorophenyl)carbamoyl]ethyl}carbamate], 7 nM; to `N[C@H](C(=O)Nc1cncc(F)c1CC[C@H]1CN[C@@H]2CCCS(=O)(=O)N1C2)[C@@H](c1ccc(Cl)cc1)C1CCCC(F)(F)C1` (stereo partly drawn) [Example 272, (βR)-4-chloro-β-(3,3-difluorocyclohexyl)-N-(4-{2-[(6R,9S)-2,2-dioxido-2-thia-1,7-diazabicyclo[4.3.1]dec-9-yl]ethyl}-5-fluoropyridin-3-yl)-L-phenylalaninamide], 5.7 nM.
Take `COC(=O)N[C@H](C(=O)Nc1cccc(F)c1CC[C@H]1CN[C@@H]2CCCS(=O)(=O)N1C2)[C@@H](c1ccc(Cl)cc1)C1CCC(C(F)(F)F)OC1` (stereo partly drawn) [Example 273, methyl {(1S,2R)-2-(4-chlorophenyl)-1-[(2-{2-[(6R,9S)-2,2-dioxido-2-thia-1,7-diazabicyclo[4.3.1]dec-9-yl]ethyl}-3-fluorophenyl)carbamoyl]-2-[6-(trifluoromethyl)tetrahydro-2H-pyran-3-yl]ethyl}carbamate]: the EC50 was 14 nM.
Under `N[C@H](C(=O)Nc1cccc(F)c1CC[C@H]1CNC[C@@H]2CCCS(=O)(=O)N1C2)[C@@H](c1ccc(Cl)cc1)C1CCOCC1` [Example 274, (2S,3R)-2-Amino-3-(4-chlorophenyl)-N-(2-(2-((6S,10S)-2,2-dioxido-2-thia-1,8-diazabicyclo[4.4.1]undecan-10-yl)ethyl)-3-fluorophenyl)-3-(tetrahydro-2H-pyran-4-yl)propanamide] stands 670 nM; under `CC1(C)C[C@H]([C@H](c2ccc(Cl)cc2)[C@H](N)C(=O)Nc2cccc(F)c2CC[C@H]2CN[C@@H]3CCS(=O)(=O)N2C3)CCO1` [Example 275, (2S,3R)-2-amino-3-(4-chlorophenyl)-3-((R)-2,2-dimethyltetrahydro-2H-pyran-4-yl)-N-(2-(2-((5R,8S)-2,2-dioxido-2-thia-1,6-diazabicyclo[3.3.1]nonan-8-yl)ethyl)-3-fluorophenyl)propanamide], 25 nM.
As to `N[C@H](C(=O)Nc1cccc(F)c1CC[C@H]1CN[C@@H]2CCCS(=O)(=O)N1CC2)[C@@H](c1ccc(F)cc1)c1cc(F)cc(F)c1` [Example 276, (2S,3S)-2-Amino-3-(3,5-difluorophenyl)-N-(2-(2-((6R,9S)-2,2-dioxido-2-thia-1,7-diazabicyclo[4.3.2]undecan-9-yl)ethyl)-3-fluorophenyl)-3-(4-fluorophenyl)propanamide], the EC50 was determined as 6.1 nM.
For the molecule `COC(=O)N[C@H](C(=O)Nc1cccc(F)c1CC[C@H]1CN[C@@H]2CCCCS(=O)(=O)N1C2)[C@@H](c1ccc(F)cc1)c1cc(F)cc(F)c1` [Example 277, Methyl ((1S,2S)-1-(3,5-difluorophenyl)-3-((2-(2-((7R,10S)-2,2-dioxido-2-thia-1,8-diazabicyclo[5.3.1]undecan-10-yl)ethyl)-3-fluorophenyl)amino)-1-(4-fluorophenyl)-3-oxopropan-2-yl)carbamate], the EC50 is 10 nM.
